The record followed here is PMC4232785, “RP-HPTLC Retention Data in Correlation with the In-silico ADME Properties of a Series of s-triazine Derivatives” (Iranian Journal of Pharmaceutical Research : IJPR, 2014).

The data set can be described thus: RP-HPTLC retention (RM0, lipophilicity parameter) on RP-18W/UV254 plates. It is filed as physicochemical. How it is done: Precoated RP-18W/UV254 plates (Macherey-Nagel GmbH and Co., Düren, Germany) were used for RP HPTLC analysis. Investigated solvent mixtures used as mobile phases: acetone-water (φ = 0.5 - 0.8; v/v), acetonitrile-water (φ = 0.5 - 0.9; v/v), methanol-water (φ = 0.65 - 0.95; v/v), 2-propanol-water (φ = 0.4 - 0.7; v/v), tetrahydrofuran-water (φ = 0.5 - 0.75; v/v).
The investigated compounds were dissolved in an appropriate solvent, methanol, 1 mg mL^-1) and the solutions (0.2 μL) were separately spotted into the plates. All the reagents used were of analytical purity. The plates were developed by the ascending technique at room temperature without previous saturation of the chamber with mobile phase. All measurements were carried out at ambient temperature. After drying of the plates, the spots were visualized under UV light at λ = 254 nm. RF values were calculated as average from three measurements for each solute-mobile phase combination. For subsequent calculations mean RM values were used; these were calculated by using the formula:
Equation (1) RM=log(1/RF-1)
The calculated RM values for different concentrations of organic solvent were used to check the linearity of their relationship with the volume fraction of organic modifier according to the equation ([23]):
Where φ is the volume fraction of organic solvent in the mobile phase, RM^0 is the intercept obtained by extrapolation to φ = 0% of modifier, and S is the slope of the linear plot. Equations (1) and (2) served for deriving data for further QSAR studies.

Where [1] appears, read: RP-18W/UV254, 2-propanol – water (φ = 0.4 - 0.7).
Setting [2] is: RP-18W/UV254, acetone – water (φ = 0.5 - 0.8).
[3] abbreviates: RP-18W/UV254, acetonitrile – water (φ = 0.5 - 0.9).
Where [4] appears, read: RP-18W/UV254, methanol – water (φ = 0.65 - 0.95).
The mark [5] stands for this setting: RP-18W/UV254, tetrahydrofuran - water (φ = 0.5 - 0.75).

As for `CC1(Nc2nc(Cl)nc(NC3(C)CCCCC3)n2)CCCCC1` [II.2], the “RM^0 (retention parameter, intercept at φ = 0% modifier)” value runs as follows: under setting [1], 2.384; under setting [2], 3.935; under setting [3], 2.753; under setting [4], 3.320; under setting [5], 3.401.

`Clc1nc(N(c2ccccc2)C2CCCCC2)nc(N(c2ccccc2)C2CCCCC2)n1` [III.4]: the “RM^0 (retention parameter, intercept at φ = 0% modifier)” value stood at 2.747 under setting [1]; 4.693 under setting [2]; 3.556 under setting [3]; 5.295 under setting [4]; 3.902 under setting [5].

In the case of `Cc1ccc(C(C)Nc2nc(Cl)nc(NC(C)c3ccc(C)cc3)n2)cc1` (centres unmarked) [I.2], the “RM^0 (retention parameter, intercept at φ = 0% modifier)” value by setting is: under setting [1], 2.525; under setting [2], 3.580; under setting [3], 2.786; under setting [4], 3.188; under setting [5], 3.567.

For the compound `Clc1nc(NC2CCCCC2)nc(NC2CCCCC2)n1` [III.1], the “RM^0 (retention parameter, intercept at φ = 0% modifier)” value by setting is: under setting [1], 2.251; under setting [2], 4.118; under setting [3], 2.356; under setting [4], 3.440; under setting [5], 3.426.

Consider `CC(Nc1nc(Cl)nc(NC(C)c2ccc(Cl)cc2)n1)c1ccc(Cl)cc1` (centres unmarked) [I.3], for which the “RM^0 (retention parameter, intercept at φ = 0% modifier)” value came out at 2.617 under setting [1]; 3.839 under setting [2]; 2.887 under setting [3]; 3.976 under setting [4]; 3.538 under setting [5].

Take `CC1(Nc2nc(Cl)nc(Cl)n2)CCCCCC1` [IV.3]: the “RM^0 (retention parameter, intercept at φ = 0% modifier)” value is given as 1.779 under setting [1]; 2.257 under setting [2]; 1.956 under setting [3]; 1.756 under setting [4]; 2.222 under setting [5].

`CC1(Nc2nc(Cl)nc(NC3(C)CCCCCC3)n2)CCCCCC1` [II.3]: the “RM^0 (retention parameter, intercept at φ = 0% modifier)” value turned out to be 3.013 under setting [1]; 4.218 under setting [2]; 3.000 under setting [3]; 4.530 under setting [4]; 4.071 under setting [5].

Consider `CC(Nc1nc(Cl)nc(NC(C)c2ccccc2)n1)c1ccccc1` (centres unmarked) [I.1], for which the “RM^0 (retention parameter, intercept at φ = 0% modifier)” value under setting [1] is 1.900; the “RM^0 (retention parameter, intercept at φ = 0% modifier)” value under setting [2] is recorded as 3.185; the “RM^0 (retention parameter, intercept at φ = 0% modifier)” value under setting [3] was 2.110; the “RM^0 (retention parameter, intercept at φ = 0% modifier)” value under setting [4] came to 2.457; the “RM^0 (retention parameter, intercept at φ = 0% modifier)” value under setting [5] is 3.439.

On to `CN(c1nc(Cl)nc(N(C)C2CCCCC2)n1)C1CCCCC1` [III.2], for which the “RM^0 (retention parameter, intercept at φ = 0% modifier)” value runs as follows: under setting [1], 2.769; under setting [2], 4.626; under setting [3], 3.284; under setting [4], 3.998; under setting [5], 3.611.

For the compound `CC1(Nc2nc(Cl)nc(Cl)n2)CCCC1` [IV.1], the “RM^0 (retention parameter, intercept at φ = 0% modifier)” value by setting is: under setting [1], 1.118; under setting [2], 1.672; under setting [3], 1.497; under setting [4], 1.526; under setting [5], 1.733.

For `CC1(Nc2nc(Cl)nc(NC3(C)CCCC3)n2)CCCC1` [II.1], the “RM^0 (retention parameter, intercept at φ = 0% modifier)” value is recorded as 2.183 under setting [1]; 3.743 under setting [2]; 2.388 under setting [3]; 3.181 under setting [4]; 3.289 under setting [5].

On to `CC(Nc1nc(Cl)nc(NC(C)c2ccc(Br)cc2)n1)c1ccc(Br)cc1` (centres unmarked) [I.4], for which the “RM^0 (retention parameter, intercept at φ = 0% modifier)” value stood at 2.764 under setting [1]; 4.303 under setting [2]; 2.896 under setting [3]; 4.407 under setting [4]; 3.351 under setting [5].

Take `Clc1nc(NC2CCCCC2)nc(N(c2ccccc2)C2CCCCC2)n1` [III.3]: the “RM^0 (retention parameter, intercept at φ = 0% modifier)” value came out at 2.691 under setting [1]; 4.019 under setting [2]; 3.101 under setting [3]; 3.980 under setting [4]; 3.387 under setting [5].
